For 14 molecules, half-life and solubility results are on record in ChEMBL document CHEMBL4020805, “Design, synthesis and SAR of new-di-substituted pyridopyrimidines as ATP-competitive dual PI3Kα/mTOR inhibitors” (Bioorg Med Chem Lett, 2017).

≈ marks a conversion by molar mass, not a printed value.

The nature of the first data set: in vitro. The note with it: CD-1, mouse, liver microsomes. Background: Microsomes from liver hold many membrane-bound enzymes, among them those of drug oxidation.
Broadly, the half-life is how long it takes for the measured level to halve. Low values mean fast loss, high ones slow loss. In turn, `CCC(=O)c1ccc(NC(=O)Nc2ccc(-c3nc(N4CCOCC4)c4cccnc4n3)cc2)cc1` came in with a half-life at 1 µM above 60 min.

For the molecule `O=C(Nc1ccc(-c2nc(N3CCOCC3)c3cccnc3n2)cc1)Nc1ccc(S(=O)(=O)Nc2ccc(F)cc2)cc1`, the half-life at 1 µM came to 59.6 min.

On to `O=C(Nc1ccc(C(=O)CCl)cc1)Nc1ccc(-c2nc(N3CCOCC3)c3ncccc3n2)cc1`, for which the half-life at 1 µM was above 60 min.

In turn, `O=C(Nc1ccc(-c2nc(N3CCOCC3)c3ncccc3n2)cc1)Nc1ccc(S(=O)(=O)Nc2ccc(F)cc2)cc1` registered a half-life at 1 µM above 60 min.

`CC(=O)c1ccc(NC(=O)Nc2ccc(-c3nc(N4CCOCC4)c4cccnc4n3)cc2)cc1` yielded a half-life at 1 µM of 59 min.

As for `O=C(Nc1ccc(-c2nc(N3CCOCC3)c3ncccc3n2)cc1)Nc1ccc(S(=O)(=O)Nc2ccc(F)cc2F)cc1`, the half-life at 1 µM was above 60 min.

`CCOC(=O)c1ccc(NC(=O)Nc2ccc(-c3nc(N4CCOCC4)c4cccnc4n3)cc2)cc1`: the half-life at 1 µM is above 60 min.

For `O=C(Nc1ccc(-c2nc(N3CCOCC3)c3cccnc3n2)cc1)Nc1ccc(S(=O)(=O)Nc2ccccc2)cc1`, the half-life at 1 µM is 26.9 min.

`O=C(Nc1ccc(-c2nc(N3CCOCC3)c3cccnc3n2)cc1)Nc1ccc(S(=O)(=O)Nc2ccc(F)cc2F)cc1` had a half-life at 1 µM of 60 min.

Molecule `O=C(Nc1ccc(-c2nc(N3CCOCC3)c3cccnc3n2)cc1)Nc1cccc(CO)c1` came in with a half-life at 1 µM of 30 min.

In the case of `O=C(Nc1ccccc1)Nc1ccc(-c2nc(N3CCOCC3)c3ncccc3n2)cc1`, the half-life at 1 µM amounted to 22.3 min.

On to `O=C(Nc1ccc(-c2nc(N3CCOCC3)c3ncccc3n2)cc1)Nc1ccc(S(=O)(=O)Nc2ccccc2)cc1`, for which the half-life at 1 µM was 16.6 min.

Regarding `O=C(Nc1ccc(CCO)cc1)Nc1ccc(-c2nc(N3CCOCC3)c3ncccc3n2)cc1`, the half-life at 1 µM was above 60 min.

Turning to `Oc1cccc(-c2nc(N3CCOCC3)c3oc4ncccc4c3n2)c1` [PI-103], the half-life at 1 µM came to 7.1 min.

A further data set is described as follows: physchem. As to conditions: buffer, pH 7.4.
The solubility is the dissolved amount per volume that the medium holds. Lower therefore signals a poorly soluble substance. `CCC(=O)c1ccc(NC(=O)Nc2ccc(-c3nc(N4CCOCC4)c4cccnc4n3)cc2)cc1` displayed a solubility at 1.5 h, 200 µM of 11.4 µM (≈ 5.5 µg/mL).

Consider `O=C(Nc1ccc(-c2nc(N3CCOCC3)c3cccnc3n2)cc1)Nc1ccc(S(=O)(=O)Nc2ccc(F)cc2)cc1`, for which the concentration in solution (solubility at 1.5 h, 200 µM) was 4.2 µM (≈ 2.52 µg/mL).

As to `O=C(Nc1ccc(C(=O)CCl)cc1)Nc1ccc(-c2nc(N3CCOCC3)c3ncccc3n2)cc1`, the solubility at 1.5 h, 200 µM was below 2 µM.

In the case of `O=C(Nc1ccc(-c2nc(N3CCOCC3)c3ncccc3n2)cc1)Nc1ccc(S(=O)(=O)Nc2ccc(F)cc2)cc1`, the solubility at 1.5 h, 200 µM was below 2 µM.

In the case of `CC(=O)c1ccc(NC(=O)Nc2ccc(-c3nc(N4CCOCC4)c4cccnc4n3)cc2)cc1`, the solubility at 1.5 h, 200 µM was below 2 µM.

In the case of `O=C(Nc1ccc(-c2nc(N3CCOCC3)c3ncccc3n2)cc1)Nc1ccc(S(=O)(=O)Nc2ccc(F)cc2F)cc1`, the solubility at 1.5 h, 200 µM is below 2 µM.

`CCOC(=O)c1ccc(NC(=O)Nc2ccc(-c3nc(N4CCOCC4)c4cccnc4n3)cc2)cc1` came in with a solubility at 1.5 h, 200 µM below 2 µM.

In turn, `O=C(Nc1ccc(-c2nc(N3CCOCC3)c3cccnc3n2)cc1)Nc1ccc(S(=O)(=O)Nc2ccccc2)cc1` had a solubility at 1.5 h, 200 µM below 2 µM.

Molecule `O=C(Nc1ccc(-c2nc(N3CCOCC3)c3cccnc3n2)cc1)Nc1ccc(S(=O)(=O)Nc2ccc(F)cc2F)cc1` displayed a solubility at 1.5 h, 200 µM below 2 µM.

`O=C(Nc1ccc(-c2nc(N3CCOCC3)c3cccnc3n2)cc1)Nc1cccc(CO)c1` had a solubility at 1.5 h, 200 µM of 21.8 µM (≈ 9.95 µg/mL).

As to `O=C(Nc1ccccc1)Nc1ccc(-c2nc(N3CCOCC3)c3ncccc3n2)cc1`, the solubility at 1.5 h, 200 µM is below 2 µM.

Molecule `O=C(Nc1ccc(-c2nc(N3CCOCC3)c3ncccc3n2)cc1)Nc1ccc(S(=O)(=O)Nc2ccccc2)cc1` gave a solubility at 1.5 h, 200 µM below 2 µM.

`O=C(Nc1ccc(CCO)cc1)Nc1ccc(-c2nc(N3CCOCC3)c3ncccc3n2)cc1` showed a solubility at 1.5 h, 200 µM below 2 µM.

For `Oc1cccc(-c2nc(N3CCOCC3)c3oc4ncccc4c3n2)c1` [PI-103], the concentration in solution (solubility at 1.5 h, 200 µM) was 3.4 µM (≈ 1.18 µg/mL).
